# pEC50: −log10 of the molar value.
# Test system: recombinant AMPK proteins (α1β1γ1, α2β1γ1, α1(1-335), α1(1-394) or α2(1-394))
# Experiment: Scintillation Proximity Assay (SPA), AMPK activation
# Assay type: biochemical, human
# Conditions: effective concentration of activator for 50% of maximal enzyme activity; 50 nM AMPK, 2 μM ATP, 2 μM biotin-SAMS, 30° C., 2 hours
# Description: Recombinant human AMPK α1β1γ1, α2β1γ1 or AMPK α subunit truncations α1(1-335), α1(1-394) and α2(1-394) were constructed, expressed and purified as described previously (Pang, T., Zhang, Z. S., Gu, M., Qiu, B. Y., Yu, L. F., Cao, P. R., Shao, W., Su, M. B., Li, J. Y., Nan, F. J., and Li, J. (2008). Rat liver AMPK heterotrimer enzyme was obtained from Upstate (Billerica, Mass., U.S.A.).
# Scintillation Proximity Assay
# Before the Scintillation Proximity Assay (SPA) assay, 200 nM recombinant AMPK proteins (α1β1γ1, α2β1γ1, α1(1-335), α1(1-394) or α2(1-394)) were fully phosphorylated as described previously (Pang et al., 2008). SPA reactions were performed in 96-well plates at a final volume of 50 μL containing 20 mM Tris-HCl pH 7.5, 5 mM MgCl2, 1 mM DTT, 2 μM biotin-SAMS, 2 μM ATP, 0.2 μCi/well [γ-^33P]ATP, and various amount of activator. Reactions were initiated by the addition of 50 nM recombinant AMPK proteins to the reaction solutions and incubated at 30° C. for 2 hours. After that, reactions were terminated by the addition of 40 μL stop solution containing 80 μg streptavidin-coated SPA beads per well, 50 mM ED TA, 0.1% Triton X-100 in PBS, pH 7.5 and incubated for 1 hour. Finally, a 160 μL suspension solution containing 2.4 M CsCl, 50 mM EDTA, and 0.1% Triton X-100 in PBS (pH 7.5) was added to the reaction solution to suspend SPA beads completely. SPA signals were determined with a Wallac MicroBeta plate counter (PerkinElmer) 30 min later for calculation of the amount of product formed. The amount of products formed in 2 hour was plotted against activator concentrations to determine the effective concentration of the activator (EC50) required for 50% of maximal enzyme activity.
row,SMILES,pEC50
1,"CC(C)NC(=O)c1ccc2c(c1)C1(CC1)CC(c1cc(F)ccc1Br)N2 (centres unmarked) [Example 33, 2-(2-Bromo-5-fluoro-phenyl)-spiro(cyclopropane-1,4′-1′,2′,3′,4′-tetrahydroquinoline)-6-carboxylic acid isopropylamide]",4.87
2,"CN(C)C(=O)c1ccc2c(c1)C1(CC1)CC(c1cc(F)ccc1Br)N2 (centres unmarked) [Example 34, 2-(2-Bromo-5-fluoro-phenyl)-spiro(cyclopropane-1,4′-1′,2′,3′,4′-tetrahydroquinoline)-6-carboxylic acid dimethylamide]",5.57
3,"O=C(NC1CCC1)c1ccc2c(c1)C1(CC1)CC(c1cc(F)ccc1Br)N2 (centres unmarked) [Example 35, 2-(2-Bromo-5-fluoro-phenyl)-spiro(cyclopropane-1,4′-1′,2′,3′,4′-tetrahydroquinoline)-6-carboxylic acid cyclobutylamide]",5.16
4,"CNC(=O)c1ccc2c(c1)C1(CC1)CC(c1cc(Cl)ccc1Cl)N2 (centres unmarked) [Example 38, 2-(2,5-Dichloro-phenyl)-spiro(cyclopropane-1,4′-1′,2′,3′,4′-tetrahydroquinoline)-6-carboxylic acid methylamide]",5.62
5,"CS(=O)(=O)N1CCN(C(=O)c2ccc3c(c2)C2(CC2)CC(c2cc(Cl)ccc2Cl)N3)CC1 (centres unmarked) [Example 42, [2-(2,5-Dichloro-phenyl)-spiro(cyclopropane-1,4′-1′,2′,3′,4′-tetrahydroquinolin)-6-yl]-(4-methanesulfonyl-piperazin-1-yl)-methanone]",5.42
6,"CC(C)NC(=O)c1ccc2c(c1)C1(CC1)CC(c1cc(Cl)ccc1F)N2 (centres unmarked) [Example 47, 2-(5-Chloro-2-fluoro-phenyl)-spiro(cyclopropane-1,4′-1′,2′,3′,4′-tetrahydroquinoline)-6-carboxylic acid isopropylamide]",4.94
7,"CNC(=O)c1ccc2c(c1)C1(CC1)CC(c1c(C)cc(F)cc1Br)N2 (centres unmarked) [Example 49, 2-(2-Bromo-4-fluoro-6-methyl-phenyl)-spiro(cyclopropane-1,4′-1′,2′,3′,4′-tetrahydroquinoline)-6-carboxylic acid methylamide]",5.49
8,"CN(C)C(=O)c1ccc2c(c1)C(C)(C)CC(C(C)(C)c1ccccc1)N2 (centres unmarked) [Example 50, 4,4-Dimethyl-2-(1-methyl-1-phenyl-ethyl)-1,2,3,4-tetrahydro-quinoline-6-carboxylic acid dimethylamide]",5.54
9,"O=C(NC1CC1)c1ccc2c(c1)C1(CCCC1)CC(c1cc(F)ccc1Br)N2 (centres unmarked) [Example 52, 2-(2-Bromo-5-fluoro-phenyl)-spiro(cyclopentane-1,4′-1′,2′,3′,4′-tetrahydroquinoline)-6-carboxylic acid cyclopropylamide]",5.32
10,"O=C(NCCO)c1ccc2c(c1)C1(CCCC1)CC(c1cc(F)ccc1Br)N2 (centres unmarked) [Example 56, 2-(2-Bromo-5-fluoro-phenyl)-spiro(cyclopentane-1,4′-1′,2′,3′,4′-tetrahydroquinoline)-6-carboxylic acid (2-hydroxy-ethyl)-amide]",5.47
11,"O=C(c1ccc2c(c1)C1(CCCC1)CC(c1cc(F)ccc1Br)N2)N1CCOCC1 (centres unmarked) [Example 57, [2-(2-Bromo-5-fluoro-phenyl)-spiro(cyclopentane-1,4′-1′,2′,3′,4′-tetrahydroquinolin)-6-yl]-morpholin-4-yl-methanone]",5.63
12,"O=C(NC1COC1)c1ccc2c(c1)C1(CCCC1)CC(c1cc(F)ccc1Br)N2 (centres unmarked) [Example 59, 2-(2-Bromo-5-fluoro-phenyl)-spiro(cyclopentane-1,4′-1′,2′,3′,4′-tetrahydroquinoline)-6-carboxylic acid oxetan-3-ylamide]",4.95

# Further compounds by rising pEC50, results first:
row,pEC50,SMILES
1,4.86,"O=C(NC1CC1)c1ccc2c(c1)C1(CC1)CC(c1cc(Cl)ccc1Cl)N2 (centres unmarked) [Example 37, 2-(2,5-Dichloro-phenyl)-spiro(cyclopropane-1,4′-1′,2′,3′,4′-tetrahydroquinoline)-6-carboxylic acid cyclopropylamide]"
2,5.12,"O=C(NC1CCC1)c1ccc2c(c1)C1(CC1)CC(c1cc(Cl)ccc1F)N2 (centres unmarked) [Example 46, 2-(5-Chloro-2-fluoro-phenyl)-spiro(cyclopropane-1,4′-1′,2′,3′,4′-tetrahydroquinoline)-6-carboxylic acid cyclobutylamide]"
3,5.23,"O=C(NC1CCC1)c1ccc2c(c1)C1(CC1)CC(c1cc(Cl)cc(Cl)c1)N2 (centres unmarked) [Example 43, 2-(3,5-Dichloro-phenyl)-spiro(cyclopropane-1,4′-1′,2′,3′,4′-tetrahydroquinoline)-6-carboxylic acid cyclobutylamide]"
4,5.25,"O=C(NC1CCC1)c1ccc2c(c1)C1(CC1)CC(c1cc(Br)ccc1F)N2 (centres unmarked) [Example 36, 2-(5-Bromo-2-fluoro-phenyl)-spiro(cyclopropane-1,4′-1′,2′,3′,4′-tetrahydroquinoline)-6-carboxylic acid cyclobutylamide]"
5,5.29,"CC(C)NC(=O)c1ccc2c(c1)C1(CC1)CC(c1cc(Cl)ccc1Cl)N2 (centres unmarked) [Example 41, 2-(2,5-Dichloro-phenyl)-spiro(cyclopropane-1,4′-1′,2′,3′,4′-tetrahydroquinoline)-6-carboxylic acid isopropylamide]"
6,5.31,"O=C(NC1CCC1)c1ccc2c(c1)C1(CC1)CC(c1cc(Cl)ccc1Cl)N2 (centres unmarked) [Example 39, 2-(2,5-Dichloro-phenyl)-spiro(cyclopropane-1,4′-1′,2′,3′,4′-tetrahydroquinoline)-6-carboxylic acid cyclobutylamide]"
7,5.43,"CN1CCN(C(=O)c2ccc3c(c2)C2(CCCC2)CC(c2cc(F)ccc2Br)N3)CC1 (centres unmarked) [Example 58, [2-(2-Bromo-5-fluoro-phenyl)-spiro(cyclopentane-1,4′-1′,2′,3′,4′-tetrahydroquinolin)-6-yl]-(4-methyl-piperazin-1-yl)-methanone]"
8,5.43,"CNC(=O)c1ccc2c(c1)C1(CCCC1)CC(c1cc(F)ccc1Br)N2 (centres unmarked) [Example 55, 2-(2-Bromo-5-fluoro-phenyl)-spiro(cyclopentane-1,4′-1′,2′,3′,4′-tetrahydroquinoline)-6-carboxylic acid methylamide]"
9,5.43,"O=C(c1ccc2c(c1)C1(CC1)CC(c1cc(Cl)ccc1Cl)N2)N1CCOCC1 (centres unmarked) [Example 40, [2-(2,5-Dichloro-phenyl)-spiro(cyclopropane-1,4′-1′,2′,3′,4′-tetrahydroquinolin)-6-yl]-morpholin-4-yl-methanone]"
10,5.45,"CN(C)C(=O)c1ccc2c(c1)C1(CCCC1)CC(c1cc(F)ccc1Br)N2 (centres unmarked) [Example 51, 2-(2-Bromo-5-fluoro-phenyl)-spiro(cyclopentane-1,4′-1′,2′,3′,4′-tetrahydroquinoline)-6-carboxylic acid dimethylamide]"
11,5.52,"O=C(c1ccc2c(c1)C1(CC1)CC(c1cc(Cl)ccc1F)N2)N1CCOCC1 (centres unmarked) [Example 44, [2-(5-Chloro-2-fluoro-phenyl)-spiro(cyclopropane-1,4′-1′,2′,3′,4′-tetrahydroquinolin)-6-yl]-morpholin-4-yl-methanone]"
12,5.58,"O=C(NC1CCC1)c1ccc2c(c1)C1(CCCC1)CC(c1cc(F)ccc1Br)N2 (centres unmarked) [Example 54, 2-(2-Bromo-5-fluoro-phenyl)-spiro(cyclopentane-1,4′-1′,2′,3′,4′-tetrahydroquinoline)-6-carboxylic acid cyclobutylamide]"
13,5.59,"Cc1ccc(F)cc1C1CC2(CC2)c2cc(C(=O)N3CCN(C)CC3)ccc2N1 (centres unmarked) [Example 31, [2-(5-Fluoro-2-methyl-phenyl)-spiro(cyclopropane-1,4′-1′,2′,3′,4′-tetrahydroquinolin)-6-yl]-(4-methyl-piperazin-1-yl)-methanone]"
14,5.68,O=C(c1ccc2c(c1)C1(CC1)CC(c1cc(F)ccc1Br)N2)N1CCNCC1 (centres unmarked) [Example 48]
15,5.75,"CN(C)C(=O)c1ccc2c(c1)C1(CC1)CC(c1cc(Cl)ccc1F)N2 (centres unmarked) [Example 45, 2-(5-Chloro-2-fluoro-phenyl)-spiro(cyclopropane-1,4′-1′,2′,3′,4′-tetrahydroquinoline)-6-carboxylic acid dimethylamide]"
16,5.86,"CN1CCC(NC(=O)c2ccc3c(c2)C2(CCCC2)CC(c2cc(F)ccc2Br)N3)CC1 (centres unmarked) [Example 53, 2-(2-Bromo-5-fluoro-phenyl)-spiro(cyclopentane-1,4′-1′,2′,3′,4′-tetrahydroquinoline)-6-carboxylic acid (1-methyl-piperidin-4-yl)-amide]"
17,5.91,"O=C(c1ccc2c(c1)C1(CC1)CC(c1cc(F)ccc1Br)N2)N1CCOCC1 (centres unmarked) [Example 32, [2-(2-Bromo-5-fluoro-phenyl)-spiro(cyclopropane-1,4′-1′,2′,3′,4′-tetrahydroquinolin)-6-yl]-morpholin-4-yl-methanone]"
